{"source": "patent US20060258581A1", "about": "“Methods and composition for derepressions of IAP-inhibited caspase” (priority 2001, published 2006)", "molecules": {"B1": {"name": "SMAC peptide (H-Ala-Val-Pro-Ile-Ala-Gln-Lys-NH2) (peptide)", "chain": "H-AVPIAQK-NH2"}}, "key": {"XIAP-inhibited caspase-3": {"target": "T1, XIAP-inhibited caspase-3 (Homo sapiens, UniProt P98170)", "T1 construct": "in a caspase derepression assay using full length XIAP; made in house; host or cells: bacteria", "T1 sequence (P98170 whole entry)": "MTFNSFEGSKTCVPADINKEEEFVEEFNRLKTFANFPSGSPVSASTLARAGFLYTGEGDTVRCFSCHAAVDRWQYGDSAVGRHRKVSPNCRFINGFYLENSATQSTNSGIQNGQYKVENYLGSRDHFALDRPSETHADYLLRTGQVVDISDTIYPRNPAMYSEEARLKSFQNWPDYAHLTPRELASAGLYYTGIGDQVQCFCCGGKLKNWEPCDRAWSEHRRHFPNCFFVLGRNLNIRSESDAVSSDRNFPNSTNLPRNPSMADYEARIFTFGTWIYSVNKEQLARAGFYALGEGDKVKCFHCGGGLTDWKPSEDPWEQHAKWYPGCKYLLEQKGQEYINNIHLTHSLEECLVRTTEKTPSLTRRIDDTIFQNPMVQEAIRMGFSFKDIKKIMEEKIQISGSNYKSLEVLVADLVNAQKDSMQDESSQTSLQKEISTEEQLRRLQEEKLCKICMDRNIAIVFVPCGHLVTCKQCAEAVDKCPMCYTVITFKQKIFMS", "test": "IAP derepression assay: Ac-DEVD-AFC hydrolysis by caspase-3 in the presence of GST-XIAP", "format": "biochemical", "settings": "for LC (lowest concentration with a ratio of 2 or higher in the derepression assay): tested at 0.4, 2, 10 and 50", "experimental": "The ratio of Vmax for hydrolysis of Ac-DEVD-AFC in the presence and absence of the candidate mixture was calculated and used to identify those that contain an agent that derepresses an IAP-inhibited caspase.\nEach mixture was aliquoted in a 25 microliter volume and in duplicate to a well of a 96 well microtiter plate. […] Fluorescence of liberated AFC was immediately detected from each well for 30 minutes at 30 second intervals. The Vmax for hydrolysis of AC-DEVD-AFC from each well was measured using the softmax software package."}, "XIAP": {"target": "XIAP (Homo sapiens, UniProt P98170)", "sequence (P98170 whole entry)": "as above", "test": "SMAC binding/competition assay: biotinylated SMAC 7-mer on NeutrAvidin plates, GST-XIAP detected by anti-GST", "settings": "in words", "experimental": "Peptide compounds containing unnatural amino acids in the 792 series, 792-33 and 792-35 (see FIG. 12 and 20 and Example XI), and an active compound in the TPI 1332 series, TPI 1332-69, were tested for binding activity in the SMAC binding assay as described above in Example X. For this assay, biotinylated SMAC 7-mer peptide (50 ng) was bound to 96 well plates coated with NeutrAvidin (Pierce, Rockford, Ill.) at 1 mg/ml in 100 μl per well of 50 mM HEPES pH 7.4, 100 mM NaCl 1 mM EDTA, 10% sucrose, 0.1% CHAPS, 10 mM DTT."}, "[1]": {"test_system": "ALVA31 prostate cancer cells", "test": "ALVA31 prostate cancer cell viability (XTT dye-reduction, trypan blue)", "format": "cell-based", "settings": "24 hrs; for cell viability, compound alone: peptides 40 μM, VP-16 100 μM", "experimental": "The in vivo effects of TPI 792-33 or TPI 792-35, either individually or in combination with the cytotoxic anticancer drug VP-16 (etoposide), on derepression of XIAP-inhibited caspase and viability of ALVA31 cells was determined as follows. ALVA31 prostate cancer cells were seeded onto 96 well plates (10^4 cells/well) in 100 μL RPMI containing 2.5% fetal bovine serum (FBS). […] After another 24 hrs-incubation, cell viability was measured by the XTT dye-reduction assay (Roche, Molecular Biochemicals; Indianapolis, Ind.) and trypan blue dye exclusion assay."}, "full length XIAP": {"target": "full length XIAP (Homo sapiens, UniProt P98170)", "sequence (P98170 whole entry)": "as above", "test": "Potency of IAP antagonists in vitro (Table VIII; caspase derepression / SMAC competition with full length XIAP)", "settings": "for Relative Potency (fold versus SMAC peptide): SMAC AVPI tetrapeptide = 1.0"}, "Jurkat leukemia cells": {"test_system": "Jurkat leukemia cells", "test": "Jurkat leukemia cell death, Annexin V/propidium iodide flow cytometry", "format": "cell-based", "experimental": "The following assay was used to test the ability of individual compounds from the TPI 1396 and TPI 1391 libraries to induce apoptosis of cultured tumor cell lines. Each of the compounds listed in Table IX was individually added to Jurkat leukemia cells (6.25×10^5 cells/mL) in RPMI containing 2.5% FBS at various concentrations for 20 hours. After incubation, cells were washed and stained with FITC-conjugated Annexin V antibody and propidium iodide (Biovision; Mountain View, Calif.). Cells were incubated for 20 minutes at room temperature in the dark and fluorescence was measured by flow cytometry (FACScan, Immunocytometry system; Becton-Dickinson; San Jose, Calif.). Cells staining positive for Annexin V were deemed non-viable.\nThe TPI I396-34 and TPI 1391-28 compounds were further tested as set forth below."}, "[2]": {"test_system": "NCI panel of 60 tumor cell lines", "test": "NCI panel of 60 tumor cell lines, 48 hours, protein-based colorimetric assay", "design": "species or system human", "experimental": "Selected polyphenylurea compounds were tested on the National Cancer Institute (NCI) panel of 60 tumor cell lines (see FIG. 28a and FIG. 29)."}, "GST-XIAP (human)": {"target": "GST-XIAP (human) (UniProt P98170)", "sequence (P98170 whole entry)": "as above", "test": "cell-based or functional assay"}}, "note": "Where a SMILES comes first, the peptide text is derived from it. Where no end group is shown, it is not given here. [ ]: non-standard residue; d: D form. The star is where a group is joined. Phe(4-Cl) = N[C@@H](Cc1ccc(Cl)cc1)C(=O)O; dPhe(4-Cl) = N[C@H](Cc1ccc(Cl)cc1)C(=O)O; 2Nal = N[C@@H](Cc1ccc2ccccc2c1)C(=O)O; d2Nal = N[C@H](Cc1ccc2ccccc2c1)C(=O)O; Fmoc = O=C(OCC1c2ccccc2-c2ccccc21)*; 2Thi = N[C@@H](Cc1cccs1)C(=O)O"}
{"molecule": "(D-Nal)-(L-Nal)-(D-Lys-εFmoc)-(Lys-εFmoc) ([d2Nal][2Nal][dK](Fmoc)K(Fmoc)) [TPI 792-17]", "values": [{"measurement": "LC (lowest concentration with a ratio of 2 or higher in the derepression assay)", "setting": "XIAP-inhibited caspase-3", "value": 2, "unit": "µg/mL"}]}
{"molecule": "(L-ThiAla)-(Lys-εFmoc)-(D-Nal)-(Lys-εFmoc) ([2Thi]K(Fmoc)[d2Nal]K(Fmoc)) [TPI 792-19]", "values": [{"measurement": "LC (lowest concentration with a ratio of 2 or higher in the derepression assay)", "setting": "XIAP-inhibited caspase-3", "value": 2, "unit": "µg/mL"}]}
{"molecule": "N[C@@H](Cc1cccs1)C(=O)N[C@@H](Cc1ccc2ccccc2c1)C(=O)N[C@H](CCCCNC(=O)OCC1c2ccccc2-c2ccccc21)C(=O)N[C@@H](CCCCNC(=O)OCC1c2ccccc2-c2ccccc21)C(=O)O", "note": "[TPI 792-35, L-3-(2-thienyl)-alanyl, L-(2-naphthyl)-alanyl-D-(e-fluorenylmethyloxycarbonyl)-lysyl-L-(e-fluorenylmethyloxycarbonyl)-lysine] (H-[2Thi][2Nal][dK](Fmoc)K(Fmoc)-OH)", "values": [{"measurement": "competition with XIAP binding to the SMAC peptide (SMAC competition assay)", "setting": "XIAP", "value": "activity"}, {"measurement": "cell viability, compound alone", "setting": "[1]", "value": "reduced viability of these prostate cancer cells by nearly half"}, {"measurement": "tumor cell killing, combination with VP-16", "setting": "[1]; peptide 40 μM with VP-16 100 μM", "value": "more potent tumor cell killing compared to VP-16 alone"}, {"measurement": "activity in the caspase derepression assay using full length XIAP", "setting": "XIAP-inhibited caspase-3; in words", "value": "activity"}, {"measurement": "LC (lowest concentration with a ratio of 2 or higher in the derepression assay)", "setting": "XIAP-inhibited caspase-3", "value": 2, "unit": "µg/mL"}, {"measurement": "Relative Potency (fold versus SMAC peptide)", "setting": "full length XIAP", "value": 2.5}]}
{"molecule": "CCCC[C@H](CNCc1ccccc1)N1C[C@@H](CC(C)C)N(CC2CCC(C(C)(C)C)CC2)C(=O)C1=O", "note": "(stereo partly shown) [TPI 1391-17]", "values": [{"measurement": "% nonviable cells", "setting": "Jurkat leukemia cells; 1 µM", "value": 13, "unit": "%"}, {"measurement": "% nonviable cells", "setting": "Jurkat leukemia cells; 5 µM", "value": 25, "unit": "%"}, {"measurement": "% nonviable cells", "setting": "Jurkat leukemia cells; 10 µM", "value": 45, "unit": "%"}, {"measurement": "% nonviable cells", "setting": "Jurkat leukemia cells; 25 µM", "value": 88, "unit": "%"}, {"measurement": "% nonviable cells", "setting": "Jurkat leukemia cells; 50 µM", "value": 91, "unit": "%"}]}
{"molecule": "(D-Nal)-(Lys-εFmoc)-(L-pClPhe)-(Lys-εFmoc) ([d2Nal]K(Fmoc)[Phe(4-Cl)]K(Fmoc)) [TPI 792-3]", "values": [{"measurement": "LC (lowest concentration with a ratio of 2 or higher in the derepression assay)", "setting": "XIAP-inhibited caspase-3", "value": 2, "unit": "µg/mL"}]}
{"molecule": "(L-Ala)-(L-Trp)-(L-Trp)-(L-ThiAla) (AWW[2Thi]) [TPI 1332-1]", "values": [{"measurement": "reversing XIAP-mediated suppression of caspase 3", "setting": "XIAP-inhibited caspase-3; 50 μg/ml, full length XIAP", "value": "Active"}]}
{"molecule": "(L-ThiAla)-(D-pClPhe)-(L-pClPhe)-(Lys-εFmoc) ([2Thi][dPhe(4-Cl)][Phe(4-Cl)]K(Fmoc)) [TPI 792-27]", "values": [{"measurement": "LC (lowest concentration with a ratio of 2 or higher in the derepression assay)", "setting": "XIAP-inhibited caspase-3", "value": 2, "unit": "µg/mL"}]}
{"molecule": "(D-Nal)-(D-pClPhe)-(L-pClPhe)-(Lys-εFmoc) ([d2Nal][dPhe(4-Cl)][Phe(4-Cl)]K(Fmoc)) [TPI 792-9]", "values": [{"measurement": "LC (lowest concentration with a ratio of 2 or higher in the derepression assay)", "setting": "XIAP-inhibited caspase-3", "value": 10, "unit": "µg/mL"}]}
{"molecule": "COc1ccc(CCN(C(=O)Nc2ccccc2)[C@H](Cc2ccccc2)CN(C(=O)Nc2ccccc2)[C@@H](CNC(=O)Nc2ccccc2)CC2CCCCC2)cc1", "note": "[TPI 1396-31]", "values": [{"measurement": "Activity* (relative caspase-3 activity: Vmax in the presence of compound / Vmax of controls having caspase-3 and XIAP)", "setting": "XIAP-inhibited caspase-3; XIAP derepression assay", "value": 1.3}]}
{"molecule": "COc1cc([C@@H]2c3cc4c(cc3[C@@H](O[C@@H]3O[C@@H]5CO[C@@H](C)O[C@H]5[C@H](O)[C@H]3O)[C@H]3COC(=O)[C@H]23)OCO4)cc(OC)c1O", "note": "[VP-16, etoposide, reference compound]", "values": [{"measurement": "cell viability, compound alone", "setting": "[1]", "value": "essentially no effect"}, {"measurement": "average (mean) LD50 for the 60 cell lines", "setting": "[2]", "value": "200 ± 2.5", "unit": "µM"}]}
{"molecule": "CC(C)Cc1ccc(C(C)CN2C(=O)C(=O)N([C@H](CNCc3ccccc3)Cc3ccc4ccccc4c3)C[C@H]2CC(C)C)cc1", "note": "(stereo partly shown) [TPI 1391-25]", "values": [{"measurement": "% nonviable cells", "setting": "Jurkat leukemia cells; 1 µM", "value": 16, "unit": "%"}, {"measurement": "% nonviable cells", "setting": "Jurkat leukemia cells; 10 µM", "value": 60, "unit": "%"}, {"measurement": "% nonviable cells", "setting": "Jurkat leukemia cells; 25 µM", "value": 90, "unit": "%"}, {"measurement": "% nonviable cells", "setting": "Jurkat leukemia cells; 50 µM", "value": 87, "unit": "%"}]}
{"molecule": "CCCCCCCN1C(=O)C(=O)N([C@H](CCCC)CNCc2ccccc2)C[C@@H]1Cc1ccc2ccccc2c1", "note": "[TPI 1391-21]", "values": [{"measurement": "% nonviable cells", "setting": "Jurkat leukemia cells; 1 µM", "value": 16, "unit": "%"}, {"measurement": "% nonviable cells", "setting": "Jurkat leukemia cells; 10 µM", "value": 44, "unit": "%"}, {"measurement": "% nonviable cells", "setting": "Jurkat leukemia cells; 25 µM", "value": 91, "unit": "%"}, {"measurement": "% nonviable cells", "setting": "Jurkat leukemia cells; 50 µM", "value": 94, "unit": "%"}, {"measurement": "Relative Potency (fold versus SMAC peptide)", "setting": "full length XIAP", "value": 3.7}, {"measurement": "EC50", "setting": "full length XIAP; amount of compound necessary to restore caspase-3 activity to 50% of Vmax", "value": 33.6, "unit": "µM"}]}
{"molecule": "B1", "values": [{"measurement": "Vmax(mix + casp3 + XIAP)/Vmax(casp3 + XIAP)", "setting": "GST-XIAP (human)", "value": 3.8}]}
